Consider one compound from PMC8909834, “An Orally Bioavailable and Highly Efficacious Inhibitor of CDK9/FLT3 for the Treatment of Acute Myeloid Leukemia” (Cancers, 2022).

For data set [1], the system named is MV4-11 tumors. Briefly: In vivo target engagement (western blot of tumor lysates). As to conditions: 75 and 125 mg/kg orally for 5 days, 4 h post final dose. Also on record: species or system mice. Here is the method: Western blotting. Western blotting was performed as described previously. Briefly, cells were lysed after incubation with different concentrations of compounds or control (0.1% DMSO) at the indicated times, samples were denatured at 95 °C for 5 min, and proteins having different molecular weights within each sample were separated by electrophoresis (Bio-Rad, Hercules, CA, USA) on polyacrylamide gels (4–20%, Bio-Rad). Resolved proteins were electrophoretically transferred onto a PVDF membrane and blocked by incubating with 10% w/v non-fat powdered milk dissolved in 1 × Tris-buffered saline-tween 20 (TBST) for 1 h at room temperature prior to incubating overnight with primary antibodies at 4 °C with slight shaking. Chemiluminescence was detected with a ChemiDoc^TM gel imaging system after the membranes have been exposed to ECL substrates (GE Healthcare, PA, USA), and the Image Lab software (Bio-Rad) was used for image capture. […] Bands were quantified using ImageJ software (US National Institutes of Health, Bethesda, MD, USA). […]

Data set [2] has as its target T1, TRKC (Homo sapiens, UniProt Q16288).
T1 construct: purchased Reaction Biology Corporation (contract assay)
Briefly: Ki determination for kinases with greater than 90% inhibition (Reaction Biology). The class given is biochemical. As to conditions: calculated from IC50 using the Cheng-Prusoff equation. How it is done: (§1) Kinase assay. The ADP Glo^TM kinase assay (Promega, Madison, WI, USA) was used to assess the inhibition by CDDD11-8 of CDKs 1, 2, 4, 6, 7, and 9, as well as the mutant isoforms of FLT3. The assays were performed in accord with the manufacturer’s protocol (Promega) as described previously. Briefly, serial three-fold dilutions of CDDD11-8 were prepared in 100% DMSO from a 2 mM stock solution, followed by 1:40 dilution into Milli-Q water. Subsequently, 1 µL of each sample was incubated with 4 µL of kinase mixture containing a particular CDK enzyme and its substrate, standard kinase buffer [3 mM MgCl2, 50 mM HEPES-NaOH pH 7.5, 3 mM MnCl2, 3 µM Na-orthovanadate, 1 mM dithiothreitol (DTT)], kinase dilution buffer (containing 0.25 mg/mL PEG20,000, 50 mM HEPES-NaOH pH 7.5, 1 mM DTT), and ATP at 37 °C for 30 to 40 min. The final reaction mixture contained 0.5% DMSO in all samples, and the applied kinase concentrations were 1, 1, 10, 40, 20, and 50 nM for CDK1, 2, 4, 6, 7, and 9, respectively. The reaction was stopped by adding ADP-Glo reagent and the mixture was incubated further in the dark at room temperature for 40 min. As a final step, kinase detection reagent was added to each mixture and incubated at room temperature for 30 to 60 min. Luminescence was read using an EnVision® multilabel plate reader (PerkinElmer, Beaconsfield, UK), and half-maximum inhibitory concentrations (IC50) were calculated using a non-linear regression model with a variable slope, plotting log (inhibitor concentration) vs. response using the following formula: Ar%=Bottom+Top−Bottom/1+Inhibitor Concentration/IC50^HillSlope where the relative activity Ar (%) is the signal relative to the controls, IC50 is the half maximum concentration, Hillslope is the steepness of the dose-response curve, Top and Bottom are plateaus reflecting the maximum and minimum in responses on the Y-axis (GraphPad Prism version 7, San Diego, CA, USA). Ki values were calculated from the IC50 using the Cheng−Prusoff equation [32]. Extensive specificity assessment was carried out by Reaction Biology Corporation (Malvern, PA, USA) with 369 kinases using 1 µM CDDD11-8 concentration in a Kinase Hotspot radiolabel assay (for experimental details, please see (Reaction Biology https://www.reactionbiology.com/). Subsequently, Ki values were determined for kinases with greater than 90% inhibition.

For data set [3], the target named is T2, NUAK1 (Homo sapiens, UniProt O60285).
T2 construct: purchased Reaction Biology Corporation (contract assay)
Described as above. The class given is biochemical. As to conditions: calculated from IC50 using the Cheng-Prusoff equation. Here is the method:
as §1

Data set [4] concerns the target T3, TNIK (Homo sapiens, UniProt Q9UKE5).
T3 construct: purchased Reaction Biology Corporation (Kinase HotSpot)
The description is as above. It counts as biochemical. As to conditions: calculated from IC50 using the Cheng-Prusoff equation. Here is the method: as §1

Data set [5] concerns the target T4, MST1 (Homo sapiens, UniProt Q13043).
T4 construct: purchased Reaction Biology Corporation (contract assay)
The description is as above. As to conditions: calculated from IC50 using the Cheng-Prusoff equation. The class given is biochemical. How it is done: as §1

In data set [6] the target is T5, GLK (Homo sapiens, UniProt Q8IVH8).
T5 construct: purchased Reaction Biology Corporation (contract assay)
The data set is described as above. The note with it: calculated from IC50 using the Cheng-Prusoff equation. The class given is biochemical. How it is done:
as §1

The target in data set [7] is T6, MINK (Homo sapiens, UniProt Q8N4C8).
T6 construct: purchased Reaction Biology Corporation (contract assay)
Described as above. It counts as biochemical. The note with it: calculated from IC50 using the Cheng-Prusoff equation. How it is done:
as §1

Data set [8] deals with Caco-2 monolayer. Briefly: Caco-2 permeability. As to conditions: Papp B-A/Papp A-B. The class given is in vitro ADME.
Data set [9] can be described thus: Caco-2 permeability. As to conditions: human. It counts as in vitro ADME.

T2 sequence (O60285 whole entry): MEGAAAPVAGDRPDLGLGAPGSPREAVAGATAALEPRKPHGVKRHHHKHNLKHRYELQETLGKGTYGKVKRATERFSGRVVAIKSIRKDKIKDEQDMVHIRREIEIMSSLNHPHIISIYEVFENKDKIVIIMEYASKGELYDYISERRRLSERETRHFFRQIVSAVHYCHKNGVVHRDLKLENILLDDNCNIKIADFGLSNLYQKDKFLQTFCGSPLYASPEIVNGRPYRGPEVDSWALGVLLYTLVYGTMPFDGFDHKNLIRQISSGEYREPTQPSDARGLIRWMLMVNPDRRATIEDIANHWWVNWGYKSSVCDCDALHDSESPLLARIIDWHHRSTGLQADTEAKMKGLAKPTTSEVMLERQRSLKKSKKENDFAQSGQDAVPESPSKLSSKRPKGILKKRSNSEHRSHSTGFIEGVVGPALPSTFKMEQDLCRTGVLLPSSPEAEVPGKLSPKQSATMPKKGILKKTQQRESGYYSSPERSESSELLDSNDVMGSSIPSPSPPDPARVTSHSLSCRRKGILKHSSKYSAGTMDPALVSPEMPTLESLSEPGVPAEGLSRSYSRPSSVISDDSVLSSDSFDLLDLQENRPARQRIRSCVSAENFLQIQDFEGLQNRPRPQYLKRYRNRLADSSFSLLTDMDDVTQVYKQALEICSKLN
T4 sequence (Q13043 whole entry): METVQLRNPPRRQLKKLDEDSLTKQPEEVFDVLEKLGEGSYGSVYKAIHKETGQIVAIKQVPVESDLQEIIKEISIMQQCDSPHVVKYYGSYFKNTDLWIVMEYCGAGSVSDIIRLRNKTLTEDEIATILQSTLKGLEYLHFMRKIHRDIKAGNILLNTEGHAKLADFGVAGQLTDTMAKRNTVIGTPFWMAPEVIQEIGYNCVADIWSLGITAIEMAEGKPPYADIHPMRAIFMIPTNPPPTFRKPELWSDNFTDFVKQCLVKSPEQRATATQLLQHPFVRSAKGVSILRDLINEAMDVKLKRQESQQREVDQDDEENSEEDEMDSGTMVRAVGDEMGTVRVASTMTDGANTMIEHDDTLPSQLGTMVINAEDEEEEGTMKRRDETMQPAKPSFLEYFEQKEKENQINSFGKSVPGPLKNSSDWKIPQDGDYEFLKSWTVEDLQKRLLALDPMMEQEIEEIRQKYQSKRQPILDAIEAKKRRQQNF
T5 sequence (Q8IVH8 whole entry): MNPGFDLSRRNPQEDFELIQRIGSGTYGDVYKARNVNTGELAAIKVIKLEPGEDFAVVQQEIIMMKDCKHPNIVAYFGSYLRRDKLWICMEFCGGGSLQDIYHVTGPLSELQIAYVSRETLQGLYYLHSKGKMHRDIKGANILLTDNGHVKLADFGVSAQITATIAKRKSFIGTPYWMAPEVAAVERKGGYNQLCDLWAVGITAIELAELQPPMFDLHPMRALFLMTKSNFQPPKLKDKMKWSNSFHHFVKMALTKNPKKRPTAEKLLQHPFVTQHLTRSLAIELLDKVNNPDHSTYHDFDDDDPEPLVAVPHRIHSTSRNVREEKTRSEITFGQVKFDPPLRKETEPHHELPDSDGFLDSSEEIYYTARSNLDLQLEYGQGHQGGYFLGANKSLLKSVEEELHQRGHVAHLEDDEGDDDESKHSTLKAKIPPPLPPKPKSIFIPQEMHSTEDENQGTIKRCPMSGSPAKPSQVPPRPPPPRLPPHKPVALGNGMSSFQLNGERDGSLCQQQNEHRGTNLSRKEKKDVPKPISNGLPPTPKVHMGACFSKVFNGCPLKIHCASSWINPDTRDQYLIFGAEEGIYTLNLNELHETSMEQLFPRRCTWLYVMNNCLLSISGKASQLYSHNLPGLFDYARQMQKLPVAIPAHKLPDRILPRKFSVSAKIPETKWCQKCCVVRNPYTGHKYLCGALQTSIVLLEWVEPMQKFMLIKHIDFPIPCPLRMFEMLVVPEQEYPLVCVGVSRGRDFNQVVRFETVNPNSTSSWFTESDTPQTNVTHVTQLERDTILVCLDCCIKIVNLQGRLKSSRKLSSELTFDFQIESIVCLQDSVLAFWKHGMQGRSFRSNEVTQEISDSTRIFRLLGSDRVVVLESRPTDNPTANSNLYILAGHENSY
T6 sequence (Q8N4C8 whole entry): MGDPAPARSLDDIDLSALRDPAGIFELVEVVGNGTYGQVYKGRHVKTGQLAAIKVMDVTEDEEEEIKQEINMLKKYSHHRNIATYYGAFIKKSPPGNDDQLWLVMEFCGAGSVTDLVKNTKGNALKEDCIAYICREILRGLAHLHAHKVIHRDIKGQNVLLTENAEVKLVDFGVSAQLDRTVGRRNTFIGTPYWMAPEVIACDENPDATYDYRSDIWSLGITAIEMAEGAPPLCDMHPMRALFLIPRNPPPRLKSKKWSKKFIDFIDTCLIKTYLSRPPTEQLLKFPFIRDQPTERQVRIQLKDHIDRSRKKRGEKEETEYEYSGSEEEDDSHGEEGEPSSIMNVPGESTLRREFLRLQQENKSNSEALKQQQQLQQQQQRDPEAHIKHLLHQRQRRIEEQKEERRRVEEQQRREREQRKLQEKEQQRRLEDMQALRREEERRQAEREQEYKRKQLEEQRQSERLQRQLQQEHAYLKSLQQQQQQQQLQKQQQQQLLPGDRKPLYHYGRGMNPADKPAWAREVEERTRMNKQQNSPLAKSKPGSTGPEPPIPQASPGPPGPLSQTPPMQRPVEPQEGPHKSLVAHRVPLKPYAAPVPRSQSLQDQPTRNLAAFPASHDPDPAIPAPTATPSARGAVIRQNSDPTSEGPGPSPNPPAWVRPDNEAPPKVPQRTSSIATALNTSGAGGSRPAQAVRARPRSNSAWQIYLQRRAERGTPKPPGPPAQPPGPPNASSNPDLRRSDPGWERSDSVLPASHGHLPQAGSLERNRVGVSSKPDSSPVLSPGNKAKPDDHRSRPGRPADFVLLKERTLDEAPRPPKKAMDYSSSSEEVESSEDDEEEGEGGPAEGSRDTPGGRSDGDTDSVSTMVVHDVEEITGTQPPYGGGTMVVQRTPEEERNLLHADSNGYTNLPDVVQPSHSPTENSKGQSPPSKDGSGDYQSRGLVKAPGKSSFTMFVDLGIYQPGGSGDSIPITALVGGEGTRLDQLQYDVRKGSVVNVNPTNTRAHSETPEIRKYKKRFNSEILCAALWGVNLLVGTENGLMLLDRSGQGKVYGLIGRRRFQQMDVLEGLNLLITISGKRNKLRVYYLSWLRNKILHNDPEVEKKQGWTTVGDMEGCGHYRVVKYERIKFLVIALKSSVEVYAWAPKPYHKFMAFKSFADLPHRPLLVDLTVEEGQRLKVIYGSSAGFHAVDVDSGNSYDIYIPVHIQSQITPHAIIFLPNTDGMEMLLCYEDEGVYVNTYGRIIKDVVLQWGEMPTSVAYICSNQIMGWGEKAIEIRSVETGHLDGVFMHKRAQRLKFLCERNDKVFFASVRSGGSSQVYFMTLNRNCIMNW
T1 sequence (Q16288 32-839): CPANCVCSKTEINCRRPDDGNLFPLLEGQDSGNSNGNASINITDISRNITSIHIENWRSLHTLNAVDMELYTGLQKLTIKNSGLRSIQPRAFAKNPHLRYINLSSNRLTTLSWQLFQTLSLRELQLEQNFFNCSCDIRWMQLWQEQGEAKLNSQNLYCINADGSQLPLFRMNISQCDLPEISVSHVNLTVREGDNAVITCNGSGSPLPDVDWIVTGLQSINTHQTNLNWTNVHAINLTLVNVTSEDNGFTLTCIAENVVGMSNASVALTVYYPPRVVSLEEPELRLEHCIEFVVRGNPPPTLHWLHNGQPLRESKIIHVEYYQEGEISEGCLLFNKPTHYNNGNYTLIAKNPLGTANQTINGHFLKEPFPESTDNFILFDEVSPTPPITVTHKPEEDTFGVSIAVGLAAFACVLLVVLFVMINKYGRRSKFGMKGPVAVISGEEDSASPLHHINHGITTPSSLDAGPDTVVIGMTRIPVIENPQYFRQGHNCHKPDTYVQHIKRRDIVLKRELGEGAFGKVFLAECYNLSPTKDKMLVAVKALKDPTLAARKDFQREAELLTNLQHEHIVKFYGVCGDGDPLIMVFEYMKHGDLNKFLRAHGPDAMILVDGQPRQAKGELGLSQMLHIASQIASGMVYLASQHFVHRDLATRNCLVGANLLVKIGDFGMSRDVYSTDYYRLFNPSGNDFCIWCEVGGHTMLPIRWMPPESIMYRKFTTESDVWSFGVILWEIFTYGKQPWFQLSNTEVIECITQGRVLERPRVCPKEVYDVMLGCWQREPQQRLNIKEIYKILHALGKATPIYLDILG

What is called Ki is a measure of affinity in units of concentration, obtained from inhibition or displacement. As usually defined, the efflux ratio is a quotient of directional permeabilities that is used to spot active efflux. The term Papp A→B denotes how fast a substance crosses the layer from the apical side. One may read the Papp B→A as the apparent permeability from the basolateral to the apical side of a cell layer. Consider `Cc1cnc(N[C@H]2CC[C@H](N)CC2)nc1-c1cnc2ccc(-c3ccccc3)cn12` [CDDD11-8], for which the “level of MCL1 in tumors” value in data set [1] is “greatly reduced”. Besides, the “phosphorylation of FLT3 at Tyr591 and STAT5 at Tyr 694 in tumors” value in data set [1] is given as “reduced”. The “phosphorylation of RNAPII at Ser2 and Ser5 in tumors” value in data set [1] was “potently inhibited”. For the same compound, the Ki in data set [2] was 10 nM; in data set [3] it was 12 nM; in data set [4], 3 nM; in data set [5], 9 nM; in data set [6], 28 nM; in [7], 14 nM. In [8], the “Caco-2 Permeability Efflux ratio” value was 4.87. In addition, in data set [9] (Caco-2, Papp B-A/Papp A-B), the efflux ratio was found to be 4.9. The compound also had an apparent permeability from apical to basolateral (Papp A→B) in data set [9] (Caco-2, A-B) of 6.06 ± 0.49 ×10⁻⁶ cm/s. Also, the Papp B→A in data set [9] (Caco-2, B-A) was 29.5 ± 8.47 ×10⁻⁶ cm/s.
